The source of these data is patent US9834558B2, “Substituted bridged urea analogs as sirtuin modulators” (GLAXOSMITHKLINE LLC, priority 2013, dated 2017).

Where two headings read alike, the source gives them in different places.

For this experiment, the target named is T1, SIRT1 (Homo sapiens, UniProt Q96EB6).
T1 sequence (Q96EB6 1-747): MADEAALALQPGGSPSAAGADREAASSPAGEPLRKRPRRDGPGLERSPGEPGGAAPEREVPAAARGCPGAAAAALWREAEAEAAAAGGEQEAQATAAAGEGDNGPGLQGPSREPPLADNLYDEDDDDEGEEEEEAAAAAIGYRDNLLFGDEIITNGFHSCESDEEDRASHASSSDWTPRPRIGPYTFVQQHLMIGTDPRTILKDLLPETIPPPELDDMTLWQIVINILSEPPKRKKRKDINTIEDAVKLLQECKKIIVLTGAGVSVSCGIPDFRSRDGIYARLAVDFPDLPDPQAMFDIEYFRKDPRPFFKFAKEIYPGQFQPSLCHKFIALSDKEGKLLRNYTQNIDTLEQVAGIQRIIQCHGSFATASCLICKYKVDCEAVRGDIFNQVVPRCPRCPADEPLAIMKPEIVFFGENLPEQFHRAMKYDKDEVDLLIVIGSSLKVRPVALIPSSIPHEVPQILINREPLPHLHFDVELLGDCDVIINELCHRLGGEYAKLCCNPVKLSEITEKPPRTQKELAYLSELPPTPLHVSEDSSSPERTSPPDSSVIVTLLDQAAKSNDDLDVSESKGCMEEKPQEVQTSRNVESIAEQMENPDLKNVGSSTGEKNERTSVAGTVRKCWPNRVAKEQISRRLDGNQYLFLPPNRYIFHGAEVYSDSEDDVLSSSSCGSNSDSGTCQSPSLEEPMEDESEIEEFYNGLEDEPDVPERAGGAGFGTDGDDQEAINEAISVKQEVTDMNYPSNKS
The experiment can be described thus: Trp mass spectrometry assay of SIRT1 activation. The class given is biochemical. To be noted: for TRP Activity (EC1.5): EC1.5 = concentration that results in 150% activation of SIRT1; for Emax: read-out: TRP MAX RESP (percent maximum fold activation). The essentials: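 Activation read-out: mass-spec measurement of O-acetyl-ADP-ribose or deacetylated Trp peptide versus compound-free controls, giving EC1.5 and Percent Maximum Activation. Reactions ran 25 min at 25 °C, pH 7.5, with 120 μM βNAD+, 0.5 μM acetylated p53-derived peptide and 10 nM His-tagged SIRT1.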

The mark [1] stands for this setting: Trp peptide assay, maximum activity relative to control (100%).

For the molecule `COCC(C)NC(=O)c1ccc2c(n1)N(C(=O)Nc1ccccn1)[C@H]1CCN2C1` (stereo partly drawn) [(9S)-5-N-(1-methoxypropan-2-yl)-8-N-(pyridin-2-yl)-1,6,8-triazatricyclo[7.2.1.0^{2,7}]dodeca-2(7),3,5-triene-5,8-dicarboxamide], the “TRP Activity (EC1.5)” value (Trp peptide assay) is “B (B (EC1.5 1-25 μM))”. Also, under setting [1], the Emax was > 150%.

Regarding `O=C(NCCO)c1ccc2c(n1)N(C(=O)Nc1ccccn1)[C@H]1CCN2C1` [(9S)-5-N-(2-hydroxyethyl)-8-N-(pyridin-2-yl)-1,6,8-triazatricyclo[7.2.1.0^{2,7}]dodeca-2(7),3,5-triene-5,8-dicarboxamide], the “TRP Activity (EC1.5)” value (Trp peptide assay) is “B (B (EC1.5 1-25 μM))”. Moreover, under setting [1], the Emax is > 150%.

With `O=C(NCC1CC1)c1ccc2c(n1)N(C(=O)Nc1ccccn1)[C@H]1CCN2C1` [(9S)-5-N-(cyclopropylmethyl)-8-N-(pyridin-2-yl)-1,6,8-triazatricyclo[7.2.1.0 {2,7}]dodeca-2(7),3,5-triene-5,8-dicarboxamide], the “TRP Activity (EC1.5)” value (Trp peptide assay) is reported as “A (A (EC1.5<1 μM))”. In addition, the Emax under setting [1] was > 150%.

Take `O=C(NC1CCCOC1)c1ccc2c(n1)N(C(=O)Nc1ccccn1)[C@H]1CCN2C1` (stereo partly drawn) [(9S)-5-N-(oxan-3-yl)-8-N-(pyridin-2-yl)-1,6,8-triazatricyclo[7.2.1.0 {2,7}]dodeca-2(7),3,5-triene-5,8-dicarboxamide]: the “TRP Activity (EC1.5)” value (Trp peptide assay) is listed as “B (B (EC1.5 1-25 μM))”. In addition, the Emax under setting [1] was > 150%.

On to `O=C(NC1CCOCC1)c1ccc2c(n1)N(C(=O)Nc1ccccn1)[C@H]1CCN2C1` [(9S)-5-N-(oxan-4-yl)-8-N-(pyridin-2-yl)-1,6,8-triazatricyclo[7.2.1.0 {2,7}]dodeca-2(7),3,5-triene-5,8-dicarboxamide], for which the “TRP Activity (EC1.5)” value (Trp peptide assay) was “B (B (EC1.5 1-25 μM))”. Moreover, the Emax under setting [1] was > 150%.

`O=C(NC1CCOC1)c1ccc2c(n1)N(C(=O)Nc1ccccn1)[C@H]1CCN2C1` (stereo partly drawn) [(9S)-5-N-(oxolan-3-yl)-8-N-(pyridin-2-yl)-1,6,8-triazatricyclo[7.2.1.0 {2,7}]dodeca-2(7),3,5-triene-5,8-dicarboxamide]: where the note is “Trp peptide assay”, the “TRP Activity (EC1.5)” value is on record as “B (B (EC1.5 1-25 μM))”. In addition, under setting [1], the Emax is > 150%.

For the molecule `O=C(NC1CCC1)c1ccc2c(n1)N(C(=O)Nc1ccccn1)[C@H]1CCN2C1` [(9S)-5-N-cyclobutyl-8-N-(pyridin-2-yl)-1,6,8-triazatricyclo[7.2.1.0^{2,7}]dodeca-2(7),3,5-triene-5,8-dicarboxamide], the “TRP Activity (EC1.5)” value (Trp peptide assay) is on record as “A (A (EC1.5<1 μM))”. Moreover, the Emax under setting [1] is > 150%.

In the case of `O=C(NC1CC1)c1ccc2c(n1)N(C(=O)Nc1ccccn1)[C@H]1CCN2C1` [(9S)-5-N-cyclopropyl-8-N-(pyridin-2-yl)-1,6,8-triazatricyclo[7.2.1.0^{2,7}]dodeca-2(7),3,5-triene-5,8-dicarboxamide], the Emax was > 150%. Further, where the note is “Trp peptide assay”, the “TRP Activity (EC1.5)” value is “A (A (EC1.5<1 μM))”.

Take `CCNC(=O)c1ccc2c(n1)N(C(=O)Nc1ccccn1)[C@H]1CCN2C1` [(9S)-5-N-ethyl-8-N-(pyridin-2-yl)-1,6,8-triazatricyclo[7.2.1.0 {2,7}]dodeca-2(7),3,5-triene-5,8-dicarboxamide]: the “TRP Activity (EC1.5)” value (Trp peptide assay) was “A (A (EC1.5<1 μM))”. For the same molecule, the Emax under setting [1] is > 150%.

With `CC(C)n1cc(-c2ccc3c(n2)N(C(=O)Nc2cnccn2)[C@H]2CCN3C2)cn1` [(9S)-5-[1-(propan-2-yl)-1H-pyrazol-4-yl]-N-(pyrazin-2-yl)-1,6,8-triazatricyclo[7.2.1.0 {2,7}]dodeca-2,4,6-triene-8-carboxamide], the “TRP Activity (EC1.5)” value (Trp peptide assay) is given as “A (A (EC1.5<1 μM))”. Besides, under setting [1], the Emax was > 150%.

As to `Cn1nc(C(F)(F)F)cc1-c1ccc2c(n1)N(C(=O)Nc1cnccn1)[C@H]1CCN2C1` [(9S)-5-[1-methyl-3-(trifluoromethyl)-1H-pyrazol-5-yl]-N-(pyrazin-2-yl)-1,6,8-triazatricyclo[7.2.1.0 {2,7}]dodeca-2(7),3,5-triene-8-carboxamide], the “TRP Activity (EC1.5)” value (Trp peptide assay) was “B (B (EC1.5 1-25 μM))”. The Emax under setting [1] was > 150%.

`O=C(Nc1cnccn1)N1c2nc(-c3ccnc(C(F)F)c3)ccc2N2CC[C@H]1C2` [(9S)-5-[2-(difluoromethyl)pyridin-4-yl]-N-(pyrazin-2-yl)-1,6,8-triazatricyclo[7.2.1.0 {2,7}]dodeca-2(7),3,5-triene-8-carboxamide]: the “TRP Activity (EC1.5)” value (Trp peptide assay) was “A (A (EC1.5<1 μM))”. Also, under setting [1], the Emax was > 150%.

Take `CN(C)c1cc(-c2ccc3c(n2)N(C(=O)Nc2cnccn2)[C@H]2CCN3C2)ccn1` [(9S)-5-[2-(dimethylamino)pyridin-4-yl]-N-(pyrazin-2-yl)-1,6,8-triazatricyclo[7.2.1.0 {2,7}]dodeca-2(7),3,5-triene-8-carboxamide]: under “Trp peptide assay”, the “TRP Activity (EC1.5)” value is “B (B (EC1.5 1-25 μM))”. The Emax under setting [1] is > 150%.

In the case of `O=C(Nc1cnccn1)N1c2nc(-c3ccnc(CO)c3)ccc2N2CC[C@H]1C2` [(9S)-5-[2-(hydroxymethyl)pyridin-4-yl]-N-(pyrazin-2-yl)-1,6,8-triazatricyclo[7.2.1.0 {2,7}]dodeca-2(7),3,5-triene-8-carboxamide], the “TRP Activity (EC1.5)” value (Trp peptide assay) is recorded as “B (B (EC1.5 1-25 μM))”. The Emax under setting [1] was > 150%.

Turning to `CNc1cc(-c2ccc3c(n2)N(C(=O)Nc2cnccn2)[C@H]2CCN3C2)ccn1` [(9S)-5-[2-(methylamino)pyridin-4-yl]-N-(pyrazin-2-yl)-1,6,8-triazatricyclo[7.2.1.0 {2,7}]dodeca-2(7),3,5-triene-8-carboxamide], the “TRP Activity (EC1.5)” value (Trp peptide assay) is reported as “B (B (EC1.5 1-25 μM))”. Further, under setting [1], the Emax was > 150%.

For the molecule `CC(C)c1cc(-c2ccc3c(n2)N(C(=O)Nc2cnccn2)[C@H]2CCN3C2)ccn1` [(9S)-5-[2-(propan-2-yl)pyridin-4-yl]-N-(pyrazin-2-yl)-1,6,8-triazatricyclo[7.2.1.0 {2,7}]dodeca-2,4,6-triene-8-carboxamide], the “TRP Activity (EC1.5)” value (Trp peptide assay) was “A (A (EC1.5<1 μM))”. The Emax under setting [1] is > 150%.

`Cc1cc(-c2ccc3c(n2)N(C(=O)Nc2cnccn2)[C@H]2CCN3C2)cc(C(F)(F)F)n1` [(9S)-5-[2-methyl-6-(trifluoromethyl)pyridin-4-yl]-N-(pyrazin-2-yl)-1,6,8-triazatricyclo[7.2.1.0 {2,7}]dodeca-2(7),3,5-triene-8-carboxamide]: the “TRP Activity (EC1.5)” value (Trp peptide assay) is listed as “A (A (EC1.5<1 μM))”. Further, the Emax under setting [1] was > 150%.

Turning to `CN(C)c1cccc(-c2ccc3c(n2)N(C(=O)Nc2cnccn2)[C@H]2CCN3C2)c1` [(9S)-5-[3-(dimethylamino)phenyl]-N-(pyrazin-2-yl)-1,6,8-triazatricyclo[7.2.1.0 {2,7}]dodeca-2(7),3,5-triene-8-carboxamide], where the note is “Trp peptide assay”, the “TRP Activity (EC1.5)” value was “B (B (EC1.5 1-25 μM))”. Further, the Emax under setting [1] is > 150%.

On to `O=C(Nc1cnccn1)N1c2nc(-c3ccc(OC(F)F)nc3)ccc2N2CC[C@H]1C2` [(9S)-5-[6-(difluoromethoxy)pyridin-3-yl]-N-(pyrazin-2-yl)-1,6,8-triazatricyclo[7.2.1.0 {2,7}]dodeca-2(7),3,5-triene-8-carboxamide], for which the “TRP Activity (EC1.5)” value (Trp peptide assay) is listed as “B (B (EC1.5 1-25 μM))”. For the same molecule, the Emax under setting [1] was > 150%.
